Experiments:
[1] = test system: maize hybrid P33G26; test: Test G maize injury with safener-treated seed; conditions: presence of dichlormid; with the exception of Compound 131 at the rate of 560 g/ha
Method: In soil-containing pots were planted seeds of maize hybrid P33G26 that was previously treated with dichlomid, fenchlorazole-ethyl, and naphthalic anhydride (or no safener). The soil surface was then treated with several rates of Compound 131 or Compound 146 dissolved in a non-phytotoxic solvent using a flat-fan sprayer calibrated to deliver 310 L/ha. Treatmemtes were replicated 4 or 5 times. The treated and untreated plants were allowed to grow in a greenhouse using supplementary artificial lighting with a day-length of 14 hours, with the temperature maintained at about 27° C. during the day and 24° C. during the night. Plants were kept watered with a dilute balanced fertilizer solution.
At 28 days after application, the treated plants were compared with untreated controls and vissually evaluated.

[2] = test system: Pioneer hybrid P33G26 corn; test: Test H corn injury, herbicide and safener mixtures applied to soil; type: in vivo; conditions: safeners for Compound 113
Method: Mixtures of the herbicide and safeners were applied to pots of a soil mixture previously sown with corn. Pioneer hybrid P33G26 corn was sown in pots containing a sterile mix of 60% sassafras soil and 40% Metro Mix 360® growing medium (pH 6.7, O.M. 2%). Test compounds were dissolved in AGWT (a mixture of 0.25% Tween 20 surfactant, 5% water, 5% glycerin and 89.75% acetone) and sprayed on the soil as pots passed under a stationary 8002E nozzle. Treatments were applied at a 33 gal/acre rate of the AGWT carrier. After treatment, the test pots were placed in the greenhouse and watered. There were two replications for each treatment. Each pot contained eight corn seeds. The pots within each replication were placed in random positions on greenhouse benches. Test plants were fertilized as they were watered with approximately 200 ppm of N (as water soluble 20-20-20 fertilizer) which was metered into the water lines with a fertilizer injector. Daytime temperatures was 23-30° C. and night time temperature was 18-25° C. The test plants were supplemented with artificial lighting. The lights were activated whenever the natural light intensity dropped below the programmed threshold. Day length was maintained for approximately 14 hours.
The test was evaluated approximately 12 days after treatment. […]

[3] = test system: crabgrass; test: Test A crabgrass; type: in vivo, Digitaria spp.; conditions: 0 to 10 scale where 0 is no effect and 10 is complete control
Summary of the method: (§1)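 Ratings came from visual comparison with untreated plants about eleven days after treatment, scored 0 for no effect through 10 for complete control. Both soil-drench preemergence and runoff-spray postemergence applications were made at the same time.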

[4] = test system: barnyardgrass; test: Test A barnyardgrass; type: in vivo, Echinochloa crus-galli; conditions: 0 to 10 scale where 0 is no effect and 10 is complete control
Method: (§2) Seeds of barnyardgrass (Echinochloa crus-galli), crabgrass (Digitaria spp.), morningglory (Ipomoea spp.), and velvetleaf (Abutilon theophrasti) were planted into a sandy loam soil and treated preemergence by soil drench with test chemicals formulated in a non-phytotoxic solvent mixture which includes a surfactant At the same time, these crop and weed species were also treated postemergence sprayed to runoff, with test chemicals formulated in the same manner.
(§3) Plants ranged in height from two to eighteen cm and were in the one to two leaf stage for the postemergence treatment. Treated plants and untreated controls were maintained in a greenhouse for approximately eleven days, after which all treated plants were compared to untreated controls and visually evaluated for injury. Plant response ratings, summarized in Table A, are based on a 0 to 10 scale where 0 is no effect and 10 is complete control.

[5] = test system: morningglory; test: Test A morningglory; type: in vivo, Ipomoea spp.; conditions: 0 to 10 scale where 0 is no effect and 10 is complete control
Summary of the method: as §1

[6] = test system: velvetleaf; test: Test A velvetleaf; type: in vivo, Abutilon theophrasti; conditions: 0 to 10 scale where 0 is no effect and 10 is complete control
Method: as §2, §3

| melting point [°C] | SMILES | Safening effect on maize injury [1] | Safening of Compound 113 on corn [2] | Plant response rating, Crabgrass ([3]; Postemergence, Rate 1000 g/ha) | Plant response rating, Crabgrass ([3]; Pre-emergence, Rate 2000 g/ha) | Plant response rating, Barnyardgrass ([4]; Postemergence, Rate 1000 g/ha) | Plant response rating, Barnyardgrass ([4]; Pre-emergence, Rate 2000 g/ha) | Plant response rating, Morningglory ([5]; Postemergence, Rate 1000 g/ha) | Plant response rating, Morningglory ([5]; Pre-emergence, Rate 2000 g/ha) | Plant response rating, Velvetleaf ([6]; Postemergence, Rate 1000 g/ha) | Plant response rating, Velvetleaf ([6]; Pre-emergence, Rate 2000 g/ha) |
| --- | --- | --- | --- | --- | --- | --- | --- | --- | --- | --- | --- |
| – | C=CCN(CC=C)C(=O)C(Cl)Cl [dichlormid, reference compound] | reduced the injury to an insignificant level | functioned very effectively as safeners | – | – | – | – | – | – | – | – |
| 116 to 117 | CC(C)N(C(=O)n1oc(=O)[nH]c1=O)c1ccccc1 [Compound 386] | – | – | 0 | 0 | 0 | 0 | 0 | 0 | 0 | 0 |
